According to patent publication US20240158446A1, “CYCLIC COMPOUND HAVING SELECTIVE INHIBITORY ACTION ON KRAS OVER HRAS AND NRAS” (CHUGAI SEIYAKU KABUSHIKI KAISHA, priority 2021, published 2024):
Read-outs that look alike come from different tables or passages of the source. *1 amine or outer side, *2 acyl side, *3 side chain or, on linkers, in order; H or OH if unused. Where a SMILES comes first, the peptide text is derived from it. Bridges are numbered along the chain shown (N, C = ends). [ ]: non-standard residue; d: D form. The star is where a group is joined. hPhe(3,5-F2-4-CF3) = N[C@@H](CCc1cc(F)c(C(F)(F)F)c(F)c1)C(=O)O; hPhe(3-Cl-4-CF3) = N[C@@H](CCc1ccc(C(F)(F)F)c(Cl)c1)C(=O)O; NPrPhe(4-CF3) = CCCN[C@@H](Cc1ccc(C(F)(F)F)cc1)C(=O)O; X20 = Cc1ccc(C[C@@H](C(=O)[*:2])N(CC2CCCC2)[*:1])cc1; NMeGly(cPent) = CN[C@H](C(=O)O)C1CCCC1; Pro(4S-Me) = C[C@@H]1CN[C@H](C(=O)O)C1; NMeD = CN[C@@H](CC(=O)O)C(=O)O; NMeL = CN[C@@H](CC(C)C)C(=O)O; αMeL = CC(C)C[C@](C)(N)C(=O)O; Morpholide = C1CN(*)CCO1; Ac5c = NC1(C(=O)O)CCCC1; Aze = O=C(O)[C@@H]1CCN1; NEtG = CCNCC(=O)O; Sar = CNCC(=O)O

Tests used:
[1] = target: GDP-bound HRAS wild-type protein (Homo sapiens, UniProt P01112); assay: Binding to HRAS by surface plasmon resonance (SPR), Single Cycle Kinetics; details: for HRAS/KRAS (ratio of KD value with respect to GDP-bound HRAS wild-type protein to KD value with respect to KRAS): SPR KD ratio HRAS/KRAS, class symbols; for HRAS/KRAS (ratio of KD value with respect to HRAS to KD value with respect to KRAS) / HRAS/KRAS (ratio of KD value for HRAS to KD value for KRAS): SPR, GDP-bound HRAS wild-type protein vs GDP-bound KRAS wild-type protein
[2] = target: GDP-bound NRAS wild-type protein (Homo sapiens, UniProt P01111); assay: Binding to NRAS by surface plasmon resonance (SPR), Single Cycle Kinetics; details: for NRAS/KRAS (ratio of KD value with respect to GDP-bound NRAS wild-type protein to KD value with respect to KRAS): SPR KD ratio NRAS/KRAS, class symbols; for NRAS/KRAS (ratio of KD value with respect to NRAS to KD value with respect to KRAS) / NRAS/KRAS (ratio of KD value for NRAS to KD value for KRAS): SPR, GDP-bound NRAS wild-type protein vs GDP-bound KRAS wild-type protein
[3] = target: GDP-bound KRAS wild-type protein (Homo sapiens, UniProt P01116); assay: Binding to KRAS by surface plasmon resonance (SPR), Single Cycle Kinetics; details: GDP-bound KRAS wild-type protein, read-out: KRAS KD
[4] = SPR Single Cycle Kinetics, 1:1 binding model

GDP-bound HRAS wild-type protein, sequence (P01112 whole entry): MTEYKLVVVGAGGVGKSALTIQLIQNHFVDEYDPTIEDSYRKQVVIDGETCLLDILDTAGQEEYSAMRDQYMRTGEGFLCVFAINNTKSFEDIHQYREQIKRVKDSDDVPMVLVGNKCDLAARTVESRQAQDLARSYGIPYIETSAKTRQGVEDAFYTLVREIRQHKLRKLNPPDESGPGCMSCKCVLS
GDP-bound NRAS wild-type protein, sequence (P01111 whole entry): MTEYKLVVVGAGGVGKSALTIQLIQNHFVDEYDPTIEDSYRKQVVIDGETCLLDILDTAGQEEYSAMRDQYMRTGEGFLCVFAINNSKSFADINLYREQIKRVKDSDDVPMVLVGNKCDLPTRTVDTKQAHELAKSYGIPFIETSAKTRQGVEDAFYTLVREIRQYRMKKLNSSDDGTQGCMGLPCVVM
GDP-bound KRAS wild-type protein, sequence (P01116 whole entry): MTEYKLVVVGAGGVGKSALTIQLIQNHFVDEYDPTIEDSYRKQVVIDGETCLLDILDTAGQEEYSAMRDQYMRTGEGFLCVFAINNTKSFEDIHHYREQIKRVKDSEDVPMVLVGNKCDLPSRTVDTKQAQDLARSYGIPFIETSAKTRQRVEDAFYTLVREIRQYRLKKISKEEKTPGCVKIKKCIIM

Row | Structure (SMILES) | Kd [3, 4] | HRAS/KRAS (ratio of KD value with respect to HRAS to KD value with respect to KRAS) [1] | NRAS/KRAS (ratio of KD value with respect to NRAS to KD value with respect to KRAS) [2] | HRAS/KRAS (ratio of KD value for HRAS to KD value for KRAS) [1] | NRAS/KRAS (ratio of KD value for NRAS to KD value for KRAS) [2] | also measured
1 | CCCN1C(=O)CN(C)C(=O)CN(C)C(=O)[C@H]([C@@H](C)CC)NC(=O)[C@H](CC(C)C)N(C)C(=O)C[C@@H](C(=O)N2CCOCC2)N(C)C(=O)[C@H](C2CCCC2)N(C)C(=O)C2(CCCC2)NC(=O)[C@@H]2C[C@H](C)CN2C(=O)[C@H](CCc2ccc(C(F)(F)F)c(Cl)c2)NC(=O)CN(C)C(=O)[C@@H]1Cc1ccc(C(F)(F)F)cc1 [PP0447] ([NMeL]I[Sar][Sar][NPrPhe(4-CF3)][Sar][hPhe(3-Cl-4-CF3)][Pro(4S-Me)][Ac5c][NMeGly(cPent)][NMeD]-Morpholide; lactam N-11) | 0.18 nM | C (A compound having a KD ratio of 0.1 or more and less than 3 is denoted as C) | B (a compound having 3 or more and less than 10 is denoted as B) | – | – | –
2 | CCCN1C(=O)CN(C)C(=O)CN(CC)C(=O)[C@H]([C@@H](C)CC)NC(=O)[C@H](CC(C)C)N(C)C(=O)C[C@@H](C(=O)N2CCOCC2)NC(=O)[C@H](C2CCCC2)N(C)C(=O)C2(CCCC2)NC(=O)[C@@H]2CCCN2C(=O)[C@H](CCc2ccc(C(F)(F)F)c(Cl)c2)NC(=O)CN(C)C(=O)[C@@H]1Cc1ccc(C(F)(F)F)cc1 [PP0331] ([NMeL]I[NEtG][Sar][NPrPhe(4-CF3)][Sar][hPhe(3-Cl-4-CF3)]P[Ac5c][NMeGly(cPent)]D-Morpholide; lactam N-11) | 2.8 nM | – | – | B (a compound having 3 or more and less than 10 is denoted as B) | B (a compound having 3 or more and less than 10 is denoted as B) | –
3 | CC[C@H](C)[C@@H]1NC(=O)[C@H](CC(C)C)N(C)C(=O)C[C@@H](C(=O)N2CCOCC2)N(C)C(=O)[C@H](C2CCCC2)N(C)C(=O)C2(CCCC2)NC(=O)[C@@H]2CCCN2C(=O)[C@H](CCc2ccc(C(F)(F)F)c(Cl)c2)NC(=O)CN(C)C(=O)[C@H](Cc2ccc(C)cc2)N(CC2CCCC2)C(=O)CN(C)C(=O)CN(C)C1=O [PP0096] ([NMeL]I[Sar][Sar][X20][Sar][hPhe(3-Cl-4-CF3)]P[Ac5c][NMeGly(cPent)][NMeD]-Morpholide; lactam N-11) | 2.8 nM | – | – | C (A compound having a KD ratio of 0.1 or more and less than 3 is denoted as C) | C (A compound having a KD ratio of 0.1 or more and less than 3 is denoted as C) | –
4 | CC[C@H](C)[C@@H]1NC(=O)[C@@H]2CCC/C=C/c3ccc(cc3)C[C@@H](C(=O)N(C)CC(=O)N[C@@H](CCc3ccc(Cl)c(Cl)c3)C(=O)N3C[C@H](OC4CCCC4)C[C@H]3C(=O)NC3(CC(C)(C)C3)C(=O)N(C)[C@@H](C3CCCC3)C(=O)N(C)[C@H](C(=O)N3CCCC3)CC(=O)N2C)N2CC/C=C\C[C@@H](C2=O)N(C)C(=O)CN(C)C1=O [PP3054] | – | – | – | A (a compound having 10 or more and less than 20 is denoted as A) | A (a compound having 10 or more and less than 20 is denoted as A) | Kd ([3]; SPR, Single Cycle Kinetics): 0.27 nM
5 | CCO[C@@H]1C[C@H]2C(=O)NC3(CC(C)(C)C3)C(=O)N(C)[C@@H](C3CCCC3)C(=O)N(C)[C@H](C(=O)N(C)C)CC(=O)N(C)[C@@H](CC)C(=O)N[C@@H]([C@@H](C)CC)C(=O)N(C)CC(=O)N(C)[C@H]3C/C=C\CCN(C3=O)[C@@H](Cc3ccc(Cl)cc3F)C(=O)N(C)CC(=O)N[C@@H](CCc3cc(F)c(C(F)(F)F)c(F)c3)C(=O)N2C1 [PP2048] | – | – | – | B (a compound having 3 or more and less than 10 is denoted as B) | A (a compound having 10 or more and less than 20 is denoted as A) | Kd ([3]; SPR, Single Cycle Kinetics): 0.071 nM
6 | CC[C@H](C)[C@@H]1NC(=O)[C@H](CC(C)C)N(C)C(=O)C[C@@H](C(=O)N(C)C)N(C)C(=O)[C@H](C2CCCC2)N(C)C(=O)C2(CCCC2)NC(=O)[C@@H]2CC(F)(F)CN2C(=O)[C@H](CCc2cc(F)c(C(F)(F)F)c(F)c2)NC(=O)CN(C)C(=O)[C@H](Cc2ccc(C(F)(F)F)cc2)N2CCCCC[C@@H](C2=O)N(C)C(=O)CN(C)C1=O [PP0465] | 0.51 nM | B (a compound having 3 or more and less than 10 is denoted as B) | B (a compound having 3 or more and less than 10 is denoted as B) | – | – | –
7 | CCO[C@@H]1C[C@H]2C(=O)NC3(CCC3)C(=O)N(C)[C@@H](CC(F)F)C(=O)N(C)[C@H](C(=O)N3CCOCC3)CC(=O)N(C)[C@@H](CC(C)C)C(=O)N[C@@H]([C@@H](C)CC)C(=O)N(C)CC(=O)N(C)[C@H]3CCCCCN(C3=O)[C@@H](Cc3ccc(C(F)(F)F)cc3)C(=O)N(C)CC(=O)N[C@@H](CCc3cc(F)c(C(F)(F)F)c(F)c3)C(=O)N2C1 [PP0822] | – | – | – | B (a compound having 3 or more and less than 10 is denoted as B) | B (a compound having 3 or more and less than 10 is denoted as B) | Kd ([3]; SPR, Single Cycle Kinetics): 5.7 nM
8 | CCCN1C(=O)[C@@H]2CCN2C(=O)CN(C)C(=O)[C@H]([C@@H](C)CC)NC(=O)[C@H](CC(C)C)N(C)C(=O)C[C@@H](C(=O)N2CCOCC2)N(C)C(=O)[C@H](C2CCCC2)N(C)C(=O)[C@](C)(CC(C)C)NC(=O)[C@@H]2CCCN2C(=O)[C@H](CCc2cc(F)c(C(F)(F)F)c(F)c2)NC(=O)CN(C)C(=O)[C@@H]1Cc1ccc(C(F)(F)F)cc1 [PP0795] ([NMeL]I[Sar][Aze][NPrPhe(4-CF3)][Sar][hPhe(3,5-F2-4-CF3)]P[αMeL][NMeGly(cPent)][NMeD]-Morpholide; lactam N-11) | 2.5 nM | B (a compound having 3 or more and less than 10 is denoted as B) | C (A compound having a KD ratio of 0.1 or more and less than 3 is denoted as C) | – | – | –
9 | CCCN1C(=O)[C@H](C2CCCC2)N(C)C(=O)C2(CCC2)NC(=O)[C@@H]2C[C@@H](OCC)CN2C(=O)[C@H](CCc2cc(F)c(C(F)(F)F)c(F)c2)NC(=O)CN(C)C(=O)[C@H](Cc2ccc(C(F)(F)F)cc2)N2CCCC[C@@H](C2=O)N(C)C(=O)CN(C)C(=O)[C@H]([C@@H](C)CC)NC(=O)[C@H](CC(C)C)N(C)C(=O)C[C@H]1C(=O)N1CCOCC1 [PP0649] | 0.75 nM | B (a compound having 3 or more and less than 10 is denoted as B) | C (A compound having a KD ratio of 0.1 or more and less than 3 is denoted as C) | – | – | –
10 | CCO[C@@H]1C[C@H]2C(=O)NC3(CCC3)C(=O)N(C)[C@@H](C(CC)CC)C(=O)N(C)[C@H](C(=O)N(C)C)CC(=O)N(C)[C@@H](CC3CCCC3)C(=O)N[C@@H]([C@@H](C)CC)C(=O)N(C)CC(=O)N(C)[C@H]3C/C=C\CCN(C3=O)[C@@H](Cc3ccc(F)cc3C)C(=O)N(C)CC(=O)N[C@@H](CCc3cc(F)c(C(F)(F)F)c(F)c3)C(=O)N2C1 [PP1516] | – | – | – | – | – | HRAS/KRAS (ratio of KD value for HRAS to KD value for KRAS) ([1]; KD ratio class): B (a compound having 3 or more and less than 10 is denoted as B); NRAS/KRAS (ratio of KD value for NRAS to KD value for KRAS) ([2]; KD ratio class): A (a compound having 10 or more and less than 20 is denoted as A); Kd ([3]; SPR, Single Cycle Kinetics, 1:1 binding model): 0.98 nM
11 | CCO[C@@H]1C[C@H]2C(=O)NC3(CCC3)C(=O)N(C)[C@@H](C3CCCC3)C(=O)N(C)[C@H](C(=O)N(C)C)CC(=O)N(C)[C@@H](COC)C(=O)N[C@@H]([C@@H](C)CC)C(=O)N(C)CC(=O)N(C)[C@H]3CCCCCN(C3=O)[C@@H](Cc3ccc(C(F)(F)F)cc3)C(=O)N(C)CC(=O)N[C@@H](CCc3cc(F)c(C(F)(F)F)c(F)c3)C(=O)N2C1 [PP0674] | 0.16 nM | B (a compound having 3 or more and less than 10 is denoted as B) | B (a compound having 3 or more and less than 10 is denoted as B) | – | – | –

More lines, main results first:

Row | Kd [3, 4] | Structure (SMILES) | HRAS/KRAS (ratio of KD value with respect to HRAS to KD value with respect to KRAS) [1] | NRAS/KRAS (ratio of KD value with respect to NRAS to KD value with respect to KRAS) [2] | HRAS/KRAS (ratio of KD value for HRAS to KD value for KRAS) [1] | NRAS/KRAS (ratio of KD value for NRAS to KD value for KRAS) [2] | also measured
12 | 2.4 nM | CCC[C@H]1C(=O)N[C@@H]([C@@H](C)CC)C(=O)N(C)CC(=O)N(C)[C@H]2C/C=C\CCN(C2=O)[C@@H](Cc2ccc(C(F)(F)F)cc2)C(=O)N(C)CC(=O)N[C@@H](CCc2ccc(CC)c(Cl)c2)C(=O)N2C[C@H](OCC)C[C@H]2C(=O)NC2(CC(C)(C)C2)C(=O)N(C)[C@@H](C(CC)CC)C(=O)N(C)[C@H](C(=O)N(C)C)CC(=O)N1C [PP2777] | – | – | – | – | HRAS/KRAS (ratio of KD value with respect to GDP-bound HRAS wild-type protein to KD value with respect to KRAS) [1]: A (a compound having 10 or more and less than 20 is denoted as A); NRAS/KRAS (ratio of KD value with respect to GDP-bound NRAS wild-type protein to KD value with respect to KRAS) [2]: AA (a compound having 20 or more is denoted as AA)
13 | 1 nM | CCC[C@H]1C(=O)N[C@@H]([C@@H](C)CC)C(=O)N(C)CC(=O)N(C)[C@H]2C/C=C\CCN(C2=O)[C@@H](Cc2ccc(C(F)(F)F)cc2)C(=O)N(C)CC(=O)N[C@@H](CCc2ccc(Cl)c(OC)c2)C(=O)N2C[C@H](OCC)C[C@H]2C(=O)NC2(CC(C)(C)C2)C(=O)N(C)[C@@H](C(CC)CC)C(=O)N(C)[C@H](C(=O)N(C)C)CC(=O)N1C [PP2789] | – | – | – | – | HRAS/KRAS (ratio of KD value with respect to GDP-bound HRAS wild-type protein to KD value with respect to KRAS) [1]: A (a compound having 10 or more and less than 20 is denoted as A); NRAS/KRAS (ratio of KD value with respect to GDP-bound NRAS wild-type protein to KD value with respect to KRAS) [2]: AA (a compound having 20 or more is denoted as AA)
